Assay results reported in patent US9598418B2, “Substituted phthalazin-1 (2H)-one derivatives as selective inhibitors of poly (ADP-ribose) polymerase-1” (CADILA HEALTHCARE LIMITED, priority 2012, dated 2017).
Where a name gives a salt, the structure may show the parent alone.

Target: T1, PARP-1 (Homo sapiens, UniProt P09874)
T1 construct: purchased Trevigen
Assay: PARP-1 inhibitory activity, HT universal colorimetric PARP assay kit (Trevigen)
Format: biochemical
Conditions: estimation as calculated from a 4 point dose response curve; read-out: PARP-1 activity in vitro IC50
Description: The compounds were tested for PARP-1 inhibitory activity by using HT universal colorimetric PARP assay kit obtained from Trevigen, following manufacturer's protocol.

T1 sequence (P09874 whole entry): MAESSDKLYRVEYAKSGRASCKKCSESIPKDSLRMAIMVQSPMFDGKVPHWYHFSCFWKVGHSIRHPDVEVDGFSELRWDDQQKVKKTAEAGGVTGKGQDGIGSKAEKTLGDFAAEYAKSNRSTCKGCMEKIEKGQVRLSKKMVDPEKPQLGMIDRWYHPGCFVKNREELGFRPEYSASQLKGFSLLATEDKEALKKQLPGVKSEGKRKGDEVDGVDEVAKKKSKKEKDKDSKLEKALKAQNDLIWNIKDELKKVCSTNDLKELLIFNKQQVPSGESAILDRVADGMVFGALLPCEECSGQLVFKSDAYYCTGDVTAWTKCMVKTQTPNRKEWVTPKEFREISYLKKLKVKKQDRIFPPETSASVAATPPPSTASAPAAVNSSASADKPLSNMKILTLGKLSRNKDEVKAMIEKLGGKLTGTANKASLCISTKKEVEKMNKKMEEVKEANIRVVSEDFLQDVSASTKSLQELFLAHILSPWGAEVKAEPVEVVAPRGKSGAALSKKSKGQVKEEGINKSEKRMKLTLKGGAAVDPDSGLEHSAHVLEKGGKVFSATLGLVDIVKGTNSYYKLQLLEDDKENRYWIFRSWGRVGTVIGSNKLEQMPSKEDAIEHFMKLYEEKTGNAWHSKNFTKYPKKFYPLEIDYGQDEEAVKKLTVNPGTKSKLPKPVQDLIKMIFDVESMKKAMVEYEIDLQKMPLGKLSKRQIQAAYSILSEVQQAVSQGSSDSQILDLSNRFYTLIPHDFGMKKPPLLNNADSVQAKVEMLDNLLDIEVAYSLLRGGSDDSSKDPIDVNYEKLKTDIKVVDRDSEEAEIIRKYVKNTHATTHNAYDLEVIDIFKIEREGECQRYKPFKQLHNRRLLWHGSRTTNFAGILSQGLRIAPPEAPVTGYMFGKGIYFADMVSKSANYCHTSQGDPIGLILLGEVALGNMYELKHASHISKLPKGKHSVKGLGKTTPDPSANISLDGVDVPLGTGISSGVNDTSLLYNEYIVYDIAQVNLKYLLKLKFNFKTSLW

Molecule | IC50
CCn1ncc2c1CN(C(=O)c1cc(Cc3n[nH]c(=O)c4ccccc34)ccc1F)C2 [Compound 42, 4-(3-(1-ethyl-1,4,5,6-tetrahydropyrrolo[3,4-c]pyrazole-5-carbonyl)-4-fluorobenzyl) phthalazin-1 (2H)-one] | 48.6 nM
O=C(c1cc(Cc2n[nH]c(=O)c3ccccc23)ccc1F)N1CC2CN(CC(F)(F)F)CC2C1 (stereo not shown) [Compound 7, 4-(4-fluoro-3-(5-(2,2,2-trifluoroethyl)octahydropyrrolo[3,4-c]pyrrole-2-carbonyl)benzyl)phthalazin-1 (2H)-one] | 38.6 nM
O=C(c1cc(Cc2n[nH]c(=O)c3ccccc23)ccc1F)N1C[C@@H]2CC(F)(F)C[C@@H]2C1 [Compound 46, 4-(3-((3 aR,6aS)-5,5-difluorooctahydrocyclopenta[c]pyrrole-2-carbonyl)-4-fluorobenzyl)phthalazin-1(2H)-one] | 27.8 nM
O=C(NC1C[C@@H]2CN(C(=O)c3cc(Cc4n[nH]c(=O)c5ccccc45)ccc3F)C[C@@H]2C1)C1CC1 (stereo partly drawn) [Compound 48, N-((3 aR,6aS)-2-(2-fluoro-5-((4-oxo-3,4-dihydrophthalazin-1-yl)methyl)benzoyl)octahydrocyclopenta[c]pyrrol-5-yl)cyclopropanecarboxamide] | 74.5 nM
CN1CC2=C(C1)CN(C(=O)c1cc(Cc3n[nH]c(=O)c4ccccc34)ccc1F)C2 [Compound 33, 4-(4-fluoro-3-(5-methyl-1,2,3,4,5,6-hexahydropyrrolo[3,4-c]pyrrole-2-carbonyl)benzyl) phthalazin-1 (2H)-one] | 28.5 nM
O=C(c1cc(Cc2n[nH]c(=O)c3ccccc23)ccc1F)N1CC2CN(Cc3ccccc3F)CC2C1 (stereo not shown) [Compound 25, 4-(4-fluoro-3-(5-(2-fluorobenzyl)octahydropyrrolo[3,4-c]pyrrole-2-carbonyl)benzyl) phthalazin-1(2H)-one] | 27.8 nM
CS(=O)(=O)N1CC2CN(C(=O)c3cc(Cc4n[nH]c(=O)c5ccccc45)ccc3F)CC2C1 (stereo not shown) [Compound 16, 4-(4-fluoro-3-(5-(methylsulfonyl)octahydropyrrolo[3,4-c]pyrrole-2-carbonyl)benzyl) phthalazin-1 (2H)-one] | 104 nM
Mixture of 4-(4-fluoro-3-(1-methyl-1,4,5,6-tetrahydropyrrolo[3,4-c]pyrazole-5-carbonyl)benzyl)phthalazin-1(2H)-one compound with 4-(4-fluoro-3-(2-methyl-2,4,5,6-tetrahydropyrrolo[3,4-c]pyrazole-5-carbonyl)benzyl)phthalazin-1(2H)-one (1:3) [Compound 28] | 20.7 nM
O=C1NC(=O)C2CN(C(=O)c3cc(Cc4n[nH]c(=O)c5ccccc45)ccc3F)CC12 (stereo not shown) [Compound 22, 5-(2-fluoro-5-((4-oxo-3,4-dihydrophthalazin-1-yl)methyl)benzoyl)tetrahydropyrrolo[3,4-c]pyrrole-1,3(2H,3aH)-dione] | 20.2 nM
Mixture of 1 & 2 Ethyl 4-(3-(2,4,5,6-tetrahydropyrrolo[3,4-c]pyrazole-5-carbonyl)-4-fluorobenzyl)phthalazin-1(2H)-one [Compound 40] | 9.9 nM
O=C(c1cc(Cc2n[nH]c(=O)c3ccccc23)ccc1F)N1CC2=C(CNC2)C1 [Compound 31, 4-(4-fluoro-3-(1,2,3,4,5,6-hexahydropyrrolo[3,4-c]pyrrole-2-carbonyl)benzyl) phthalazin-1(2H)-one] | 24.2 nM
O=C1C[C@@H]2CN(C(=O)c3cc(Cc4n[nH]c(=O)c5ccccc45)ccc3F)C[C@@H]2C1 [Compound 39, 4-(4-fluoro-3-((3 aR,6aS)-5-oxooctahydrocyclopenta[c]pyrrole-2-carbonyl)benzyl) phthalazin-1 (2H)-one] | 54.5 nM
O=C(c1cc(Cc2n[nH]c(=O)c3ccccc23)ccc1F)N1CC2CN(C(F)F)CC2C1 (stereo not shown) [Compound 38, 4-(3-(5-(difluoromethyl)octahydropyrrolo[3,4-c]pyrrole-2-carbonyl)-4-fluorobenzyl) phthalazin-1 (2H)-one] | 91 nM
O=C(c1cc(Cc2n[nH]c(=O)c3ccccc23)ccc1F)N1CC2CN(Cc3ccccc3)CC2C1 (single isomer, unassigned) [Compound 9, 4-(3-(5-benzyloctahydropyrrolo[3,4-c]pyrrole-2-carbonyl)-4-fluorobenzyl)phthalazin-1(2H)-one hydrochloride] | 24 nM
O=C(c1cc(Cc2n[nH]c(=O)c3ccccc23)ccc1F)N1CC2CN(CC3CC3)CC2C1 (stereo not shown) [Compound 6, 4-(3-(5-(cyclopropylmethyl)octahydropyrrolo[3,4-c]pyrrole-2-carbonyl)-4-fluorobenzyl)phthalazin-1(2H)-one] | 46.7 nM
O=C(c1cc(Cc2n[nH]c(=O)c3ccccc23)ccc1F)N1CC2COCC2C1 (stereo not shown) [Compound 14, 4-(4-fluoro-3-(hexahydro-1H-furo[3,4-c]pyrrole-5-carbonyl)benzyl)phthalazin-1 (2H)-one] | 46.5 nM
COc1cccc(CN2CC3CN(C(=O)c4cc(Cc5n[nH]c(=O)c6ccccc56)ccc4F)CC3C2)n1 (stereo not shown) [Compound 26] | 36 nM
O=C(c1cc(Cc2n[nH]c(=O)c3ccccc23)ccc1F)N1CC2CCCC2C1 (stereo not shown) [Compound 23, 4-(4-fluoro-3-(octahydrocyclopenta[c]pyrrole-2-carbonyl)benzyl)phthalazin-1(2H)-one] | 67.8 nM
Mixture of (1 & 2 isopropyl) 4-(4-fluoro-3-(1,4,5,6-tetrahydropyrrolo[3,4-c]pyrazole-5-carbonyl)benzyl)phthalazin-1(2H)-one [Compound 44] | 19.9 nM
COCCN1CC2CN(C(=O)c3cc(Cc4n[nH]c(=O)c5ccccc45)ccc3F)CC2C1 (stereo not shown) [Compound 47, 4-(4-fluoro-3-(5-(2-methoxyethyl)octahydropyrrolo[3,4-c]pyrrole-2-carbonyl)benzyl) phthalazin-1 (2H)-one] | 48.3 nM
CC(C)n1ncc2c1CN(C(=O)c1cc(Cc3n[nH]c(=O)c4ccccc34)ccc1F)C2 [Compound 43, 4-(4-fluoro-3-(1-isopropyl-1,4,5,6-tetrahydropyrrolo[3,4-c]pyrazole-5-carbonyl)benzyl)phthalazin-1 (2H)-one] | 55.1 nM
CN1CC2CN(C(=O)c3cc(Cc4n[nH]c(=O)c5ccccc45)ccc3F)CC2C1 (stereo not shown) [Compound 21, 4-(4-fluoro-3-(5-methyloctahydropyrrolo[3,4-c]pyrrole-2-carbonyl)benzyl)phthalazin-1(2H)-one] | 22.6 nM

Further lines, results first:

IC50 | Molecule
14.6 nM | O=C(c1cc(Cc2n[nH]c(=O)c3ccccc23)ccc1F)N1Cc2cn[nH]c2C1 [Compound 3, 4-(4-fluoro-3-(1,4,5,6-tetrahydropyrrolo[3,4-c]pyrazole-5-carbonyl)benzyl) phthalazin-1 (2H)-one]
14.1 nM | O=C(c1cc(Cc2n[nH]c(=O)c3ccccc23)ccc1F)N1Cc2cnn(C(=O)C3CC3)c2C1 [Compound 12, 4-(3-(1-(cyclopropanecarbonyl)-1,4,5,6-tetrahydropyrrolo[3,4-c]pyrazole-5-carbonyl)-4-fluorobenzyl)phthalazin-1(2H)-one]
11.6 nM | O=C(c1cc(Cc2n[nH]c(=O)c3ccccc23)ccc1F)N1CC2CNCC2C1 (stereo not shown) [Compound 15, 4-(4-fluoro-3-(octahydropyrrolo[3,4-c]pyrrole-2-carbonyl)benzyl)phthalazin-1(2H)-one]
11.5 nM | O=C(c1cc(Cc2n[nH]c(=O)c3ccccc23)ccc1F)N1CC2CN(c3ccccc3)CC2C1 (stereo not shown) [Compound 32, 4-(4-fluoro-3-(5-phenyloctahydropyrrolo[3,4-c]pyrrole-2-carbonyl)benzyl)phthalazin-1(2H)-one]
9.87 nM | O=C(c1cc(Cc2n[nH]c(=O)c3ccccc23)ccc1F)N1Cc2cscc2C1 [Compound 30, 4-(3-(5,6-dihydro-4H-thieno[3,4-c]pyrrole-5-carbonyl)-4-fluorobenzyl)phthalazin-1(2H)-one]
12.5 nM | CN1C(=O)C2CN(C(=O)c3cc(Cc4n[nH]c(=O)c5ccccc45)ccc3F)CC2C1=O (stereo not shown) [Compound 27, 5-(2-fluoro-5-((4-oxo-3,4-dihydrophthalazin-1-yl)methyl)benzoyl)-2-methyl tetrahydropyrrolo[3,4-c]pyrrole-1,3(2H,3aH)-dione]
15.4 nM | Cn1ncc2c1CN(C(=O)c1cc(Cc3n[nH]c(=O)c4ccccc34)ccc1F)C2 [Compound 54, 4-(4-fluoro-3-(1-methyl-1,4,5,6-tetrahydropyrrolo[3,4-c]pyrazole-5-carbonyl)benzyl) phthalazin-1 (2H)-one benzenesulfonate]
13.8 nM | CC(C)n1cc2c(n1)CN(C(=O)c1cc(Cc3n[nH]c(=O)c4ccccc34)ccc1F)C2 [Compound 45, 4-(4-fluoro-3-(2-isopropyl-2,4,5,6-tetrahydropyrrolo[3,4-c]pyrazole-5-carbonyl)benzyl) phthalazin-1(2H)-one]
8.9 nM | CCn1cc2c(n1)CN(C(=O)c1cc(Cc3n[nH]c(=O)c4ccccc34)ccc1F)C2 [Compound 41, 4-(3-(2-ethyl-2,4,5,6-tetrahydropyrrolo[3,4-c]pyrazole-5-carbonyl)-4-fluorobenzyl) phthalazin-1 (2H)-one]
13.2 nM | CC(C)n1cc2c(n1)CN(C(=O)c1cc(Cc3n[nH]c(=O)c4ccccc34)ccc1F)C2 [Compound 55, 5-(2-fluoro-5-((4-oxo-3,4-dihydrophthalazin-1-yl)methyl)benzoyl)-2-isopropyl-2,4,5,6-tetrahydropyrrolo[3,4-c]pyrazol-2-ium hydrogensulfate]
9.85 nM | O=C(c1cc(Cc2n[nH]c(=O)c3ccccc23)ccc1F)N1CC2CN(Cc3ccc(F)cc3)CC2C1 (stereo not shown) [Compound 24, 4-(4-fluoro-3-(5-(4-fluorobenzyl)octahydropyrrolo[3,4-c]pyrrole-2-carbonyl)benzyl) phthalazin-1 (2H)-one]
8.41 nM | O=C(c1cc(Cc2n[nH]c(=O)c3ccccc23)ccc1F)N1CC2C(=O)N(Cc3ccccc3)C(=O)C2C1 (stereo not shown) [Compound 2, 2-benzyl-5-(2-fluoro-5-((4-oxo-3,4-dihydrophthalazin-1-yl)methyl)benzoyl) tetrahydropyrrolo[3,4-c]pyrrole-1,3(2H,3aH)-dione]
